Where two headings read alike, the source gives them in different places.
Legend:
Water solubility = format: physicochemical
panel of 68 kinases = test: Targeted kinase screen (Kinase Profiling Service, Thermo Fisher Scientific); format: biochemical; details: 10 μM
Description: Targeted kinase screen. Inhibition of enzymatic activity of a panel of kinases in the presence of 10 μM ESATA-20 was analyzed by the Kinase Profiling Service at Thermo Fisher Scientific.

fl-HDAC4 (wild-type) = target: T1, fl-HDAC4 (wild-type) (Homo sapiens, UniProt P56524); test: SPR binding analysis TasQ / fl-HDAC4
T1 construct: Full-length (fl) [A.A. 1-1082] recombinant human histone deacetylase 4 (rhHDAC4) protein; FLAG (N); GST (given as 'with or without'); made in house; host or cells: HEK293-T
Description: (§1) Surface Plasmon Resonance (SPR) Binding Analysis. SPR analysis was performed on the Biacore 3000™ system using CM5 sensor chips, certified buffers (HBS-P—10 mM HEPES, 0.15 M NaCl, pH 7.4, containing 0.005% v/v Surfactant P; HBS-EP-HBS-P with 3 mM EDTA) and reagents for immobilization and surface regeneration from Biacore, GE Healthcare, Uppsala Sweden. Evaluation of sensorgrams was performed using the BIA-evaluation Software version 4.1 and GraphPad Prism 4. Buffer of protein reagents were changed to HBS-P on Zeba spin desalting columns (Thermo Scientific) prior to being used in SPR analysis (Isaacs 2013).
(§2) A. Binding of wild-type and mutant forms of HDAC4 to immobilized TasQ. TasQ (ABR-215050; mol wt 406.4) was dissolved as a 40 mM solution in water with 1.5 equivalents of NaOH. TasQ with an amino-linker [i.e. —(CH2)2O(CH2)2—NH2](ABR-225180) in amide nitrogen position was used for amine coupling on to a Biacore CM5 sensor chip. A 1 mg/mL solution of ABR-225180 in HBS-P buffer was prepared and immobilized on a CM5 chip by injection at a flow rate of 5 or 10 μL/min until a stable response level was reached. Interaction of various HDAC4 forms with immobilized TasQ was studied by injection over this surface in HBS-P buffer containing 10 or 20 μM ZnCl2. Bound HDAC4 was removed by a pulse of 3 mM EDTA in HBS-P or 0.5 to 6.25 mM NaOH in water. In a second series of experiments, the ability of TasQ in solution to displace this binding was studied by pre-incubation of HDAC4 with TasQ as competitor.
B. Binding of TasQ to immobilized HDAC4 and NCoR1. Different variants of HDAC4 (full-length wild-type and mutant forms and the truncated protein) and full-length NCoR1 were immobilized on a CM5 chip using random amine coupling. Briefly, proteins were dissolved in 10 mM sodium acetate buffer at pH 5.0 or 5.5 and immobilized to the aimed level using the standard protocol from GE Healthcare. Serially diluted TasQ in HBS-P buffer with 10 or 20 μM Zn was injected (for 2 or 3 min at a flow rate of 30 μl/min) either directly or after a 1st injection of 1 mM DTT to reduce cysteines in the zinc conformation site in HDAC4. Regeneration was made with a short pulse of HBS-EP.
To evaluate the conformational requirements for TasQ's binding to HDAC4, surface plasmon resonance (SPR) analysis was utilized. To maximize conformational flexibility, TasQ is immobilized onto the surface of a Biacore CM5 sensor chip via an amino-linker [i.e. —(CH2)2—O—(CH2)2—NH2] in its amide nitrogen position.
By comparison, Linomide even at >30 μM in solution binds only 10-15% of the immobilized fl-HDAC4 protein despite the presence of Zn^+2 (FIG. 14). […] The fact that the KD for binding of soluble TasQ to immobilized fl-HDAC4 is higher than the KD for binding of soluble fl-HDAC4 with immobilized TasQ is predictable. This is because the conformational dynamics of fl-HDAC4 protein immobilized on the chip are more restrictive due to the multiple random amine coupling than the conformational dynamics of TasQ immobilized via a single amino-linker.
To address this possibility, a competitive binding assay was developed based upon the ability of TasQ in solution to compete with immobilized TasQ on the SPR-chip for binding to fl-HDAC4.

S100A9 = S100A9 (Homo sapiens, UniProt P06702); details: Kallberg et al. 2012; cited from earlier work
[1] = target: T2, fl-R681A/R798A double mutant HDAC4 (Homo sapiens, UniProt P56524, R681A/R798A); test: SPR binding of fl-R681A/R798A double mutant HDAC4 to immobilized TasQ; details: TasQ in solution
T2 construct: Full-length (fl) [A.A. 1-1082] recombinant human histone deacetylase 4 (rhHDAC4) protein; FLAG (N); GST (given as 'with or without'); made in house; host or cells: HEK293-T
Description: as §1
as §2, with “In a second series of experiments, the ability of TasQ in solution to displace this binding was studied by pre-incubation of HDAC4 with TasQ as competitor.” left out

HIF-1α protein in tumors = details: daily oral 10 mg/kg/d; cited from earlier work
fl-HDAC4 = target: T3, fl-HDAC4 (Homo sapiens, UniProt P56524); test: HDAC4 enzymatic assay with Lys(Tfa)-AMC substrate; format: biochemical
T3 construct: Full-length (fl) [A.A. 1-1082] recombinant human histone deacetylase 4 (rhHDAC4) protein; FLAG (N); GST (given as 'with or without'); made in house; host or cells: HEK293-T
Description: HDAC4 Enzymatic Assay. HDAC4 activity of the various recombinant forms used through these studies was assayed using the small non-protein Lys(Tfa)-AMC as described previously (Bottomley et al. J. Biol. Chem. 2008, 283:26694-26704). The specificity of this assay is documented via its inhibition by a small molecule trifluoroacetylthiophene-trifluoromethylketone derivative (TFT-PIP) described previously (id.).
Thus, TasQ's inhibition of HDAC4/NCoR1 formation involves only its binding to HDAC4. To resolve whether such TasQ binding involves the ZCD vs. ZRD in HDAC4, we took advantage of the fact that while HDAC4 has only marginal deacetylase activity against acetylated lysine-containing proteins, it can deacetylate a small non-protein trifluoroacetamide substrate (a.k.a., Lys(Tfa)-AMC). This reaction is inhibited by a small molecule trifluoroacetylthiophene-trifluoromethylketone derivative [a.k.a., TFT-PIP (FIG. 16)] due to its binding to the catalytic Zn^2+ in the ZCD, which locks the ZRD in the open conformation (Bottomley 2008).

T1 sequence (P56524 whole entry): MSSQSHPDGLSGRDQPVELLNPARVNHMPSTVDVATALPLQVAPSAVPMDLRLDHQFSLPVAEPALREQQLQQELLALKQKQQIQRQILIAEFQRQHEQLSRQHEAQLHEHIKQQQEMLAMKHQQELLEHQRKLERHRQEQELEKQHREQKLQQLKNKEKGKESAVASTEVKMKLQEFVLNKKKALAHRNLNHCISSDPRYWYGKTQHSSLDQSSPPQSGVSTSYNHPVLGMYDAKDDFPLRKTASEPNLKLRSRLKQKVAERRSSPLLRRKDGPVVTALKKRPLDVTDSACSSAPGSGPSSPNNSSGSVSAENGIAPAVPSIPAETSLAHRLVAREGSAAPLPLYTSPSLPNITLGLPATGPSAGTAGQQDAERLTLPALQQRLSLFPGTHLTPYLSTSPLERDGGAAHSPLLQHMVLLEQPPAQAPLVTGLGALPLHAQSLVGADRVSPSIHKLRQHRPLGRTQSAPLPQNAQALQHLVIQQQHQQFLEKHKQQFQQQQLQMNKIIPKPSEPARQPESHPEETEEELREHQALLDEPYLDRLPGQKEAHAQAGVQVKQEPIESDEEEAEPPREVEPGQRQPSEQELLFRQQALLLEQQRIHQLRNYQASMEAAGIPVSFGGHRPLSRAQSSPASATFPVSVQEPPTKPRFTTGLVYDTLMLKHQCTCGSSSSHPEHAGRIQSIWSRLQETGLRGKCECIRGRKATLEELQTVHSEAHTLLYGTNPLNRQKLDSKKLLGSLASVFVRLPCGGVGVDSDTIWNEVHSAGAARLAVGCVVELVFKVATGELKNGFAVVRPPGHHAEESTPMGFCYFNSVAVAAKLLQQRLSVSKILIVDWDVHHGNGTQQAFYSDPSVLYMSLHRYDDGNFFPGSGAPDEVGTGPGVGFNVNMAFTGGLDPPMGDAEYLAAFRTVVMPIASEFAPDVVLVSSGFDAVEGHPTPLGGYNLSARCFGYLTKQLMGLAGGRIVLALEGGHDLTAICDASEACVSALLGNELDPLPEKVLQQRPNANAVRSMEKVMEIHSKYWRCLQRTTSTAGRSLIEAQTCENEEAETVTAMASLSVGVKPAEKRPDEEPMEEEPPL
T3 sequence (P56524 whole entry): as above
T2 sequence (P56524 whole entry R681A/R798A): as the sequence (P56524 whole entry) above, with R681A, R798A counted along it
Sequence of S100A9 (P06702 whole entry, species assumed): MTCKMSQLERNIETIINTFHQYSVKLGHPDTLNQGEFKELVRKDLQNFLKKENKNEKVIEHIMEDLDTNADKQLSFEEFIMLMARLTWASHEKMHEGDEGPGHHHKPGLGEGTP

Compound	water solubility compared with TasQ (Water solubility)	change in activity in any of the 68 kinases tested (panel of 68 kinases) [%]	IC50 (fl-HDAC4 (wild-type); competitive SPR assay, read-out: IC50 of TasQ in solution to reduce binding of fl-wild-type HDAC4 to immobilized TasQ) [nM]	Kd (fl-HDAC4 (wild-type); compound in solution, immobilized fl-HDAC4, n=4, read-out: KD) [nM]	Kd (fl-HDAC4 (wild-type); fl-HDAC4 in solution, immobilized amine-linked TasQ, Zn2+, read-out: KD calculated from the on- and off-rates) [nM]	Kd (fl-HDAC4 (wild-type); fl-HDAC4 in solution, immobilized amine-linked TasQ, Zn2+, read-out: KD from the steady state dose-response curve) [nM]	affinity to S100A9 (S100A9)	competitive displacement of mutant HDAC4 from immobilized TasQ [1]	lowering of HIF-1α protein in tumors (HIF-1α protein in tumors) [%]	effect on enzymatic activity of fl-HDAC4 (fl-HDAC4)
COc1cccc2c1c(O)c(C(=O)N(c1ccc(C(F)(F)F)cc1)C1CCCCC1)c(=O)n2C [ESATA-20]	less water soluble than TasQ	< 15	–	–	–	–	–	–	–	–
COc1cccc2c1c(O)c(C(=O)N(C)c1ccc(C(F)(F)F)cc1)c(=O)n2C [TasQ, Tasquinimod]	–	–	1300	4900	~20	~130	nanomolar (nM) affinity	not competitively displaced	> 50	did not inhibit

Source: patent US20250059139A1, “COMPOUNDS FOR TREATMENT OF CANCER” (THE JOHNS HOPKINS UNIVERSITY, priority 2021, published 2025)
